Measurements taken from US20190014806A1, “Composition to Reduce the Negative Effects of Alcohol Consumption” (priority 2017, published 2019).

System: drosophila
Experiment: alcohol sedation model: recovery of drosophila after acute alcohol exposure
Format: in vivo
Conditions: FIG. 1; acute alcohol exposure over time; agents in fly food at least two days before exposure
Procedure: This invention used a modified version of the alcohol sedation model disclosed by Sandhu et al to evaluate the effects of acute alcohol exposure in drosophila. For example, in one of the models, for at least two days prior to alcohol exposure, drosophila consumed standard fly food combined with placebo or investigational agents. The drosophila were then moved to empty, foam stopper-covered vials and allowed to acclimate before the foam stoppers were injected with 1 ml 100% ethanol. At different time intervals, it was noted how many drosophila in each vial lost consciousness. […] The average recovery score was calculated by averaging the recovery scores of individual drosophila. Increasing the extent of alcohol exposure led to greater alcohol toxicity, including substantial death. In the following examples, a modified version of the alcohol sedation model employed by Sandhu et al. (“An Inexpensive, Scalable Behavioral Assay for Measuring Ethanol Sedation Sensitivity and Rapid Tolerance in Drosophila,” J Vis Exp. Author manuscript; available in PMC 2016 Apr. 15) to evaluate the effects of acute alcohol exposure was used. For at least two days prior to alcohol exposure, flies consumed standard fly food combined with placebo or investigational agents. […] The average recovery score is calculated by averaging the recovery scores of individual flies. […]

NCCS(=O)(=O)O [taurine]
recovery from consumption of alcohol in comparison with no taurine added (placebo): accelerates recovery from consumption of alcohol
